Results published in US20260232767A1, “INTERLEUKIN-23 RECEPTOR ANTAGONIST PEPTIDES FOR USE IN THE TREATMENT OF PSORIASIS” (Janssen Pharmaceutica NV, priority 2023, published 2026).

Tested on: subjects with moderate-to-severe plaque psoriasis
Assay: PSSD symptom and sign scores, Example 2
Format: in vivo, human
Settings: for Change from Baseline in PSSD Symptom Score at Week 52, LSMean: MMRM model; for Subjects Achieving PSSD Sign Score 0 at Week 52: Subjects w/Baseline PSSD Sign Score ≥1 (Table 26, second block); for Subjects achieving PSSD Sign Score = 0 at Week 52: subjects with Baseline PSSD Sign Score ≥1; for Subjects achieving PSSD Symptom Score = 0 at Week 52: subjects with Baseline PSSD Symptom Score ≥1; for Change from Baseline in PSSD Sign Score, LSMean / Change from Baseline in PSSD Symptom Score, LSMean: MMRM
[1] = Placebo → 100 mg QD, crossed over at or after Week 16

CC(=O)NCCCC[C@@H]1NC(=O)[C@H](Cc2c[nH]c3c(C)cccc23)NC(=O)[C@H]([C@@H](C)O)NC(=O)[C@H](CC(N)=O)NC(=O)[C@@H](NC(C)=O)C(C)(C)SSC(C)(C)[C@@H](C(=O)N[C@@H](Cc2ccc(OCCN)cc2)C(=O)N[C@@H](Cc2ccc3ccccc3c2)C(=O)NC2(C(=O)N[C@@H](CCC(=O)O)C(=O)N[C@@H](CC(N)=O)C(=O)N[C@@H](Cc3cccnc3)C(=O)N(C)CC(N)=O)CCOCC2)NC1=O [IL-23 receptor antagonist peptide, Ac-[Pen]*-N-T-[W(7-Me)]-[Lys(Ac)]-[Pen]*-Phe[4-(2-aminoethoxy)]-[2-Nal]-[THP]-E-N-[3-Pal]-Sarc-NH2 (*[Pen]-[Pen]* formdisulfidebond)]
Change from Baseline in PSSD Sign Score at Week 52, Median (25 mg BID): −38.5
Change from Baseline in PSSD Symptom Score at Week 52, Median (25 mg BID): −27.0
Change from Baseline in PSSD Symptom Score at Week 52, LSMean (25 mg BID): −31.4
Subjects Achieving PSSD Sign Score 0 at Week 52 (25 mg BID): 5 (12.2%)
Subjects achieving PSSD Sign Score = 0 at Week 52 (25 mg BID): 5 (12.2%)
Subjects achieving PSSD Symptom Score = 0 at Week 52 (25 mg BID): 7 (17.1%)
Change from Baseline in PSSD Sign Score at Week 52, Median (25 mg QD): −32.5
Change from Baseline in PSSD Symptom Score at Week 52, Median (25 mg QD): −35.0
Change from Baseline in PSSD Symptom Score at Week 52, LSMean (25 mg QD): −22.3
Subjects Achieving PSSD Sign Score 0 at Week 52 (25 mg QD): 7 (16.3%)
Subjects achieving PSSD Sign Score = 0 at Week 52 (25 mg QD): 7 (16.3%)
Subjects achieving PSSD Symptom Score = 0 at Week 52 (25 mg QD): 8 (18.6%)
Change from Baseline in PSSD Sign Score at Week 52, Median (50 mg QD): −45.0
Change from Baseline in PSSD Symptom Score at Week 52, Median (50 mg QD): −34.0
Change from Baseline in PSSD Symptom Score at Week 52, LSMean (50 mg QD): −33.0
Subjects achieving PSSD Sign Score = 0 at Week 52 (50 mg QD): 5 (11.6%)
Subjects achieving PSSD Symptom Score = 0 at Week 52 (50 mg QD): 9 (21.4%)
Change from Baseline in PSSD Sign Score at Week 52, Median (100 mg BID): −55.0
Change from Baseline in PSSD Symptom Score at Week 52, Median (100 mg BID): −53.0
Change from Baseline in PSSD Symptom Score at Week 52, LSMean (100 mg BID): −44.0
Subjects Achieving PSSD Sign Score 0 at Week 52 (100 mg BID): 7 (16.7%)
Subjects achieving PSSD Sign Score = 0 at Week 52 (100 mg BID): 7 (16.7%)
Change from Baseline in PSSD Sign Score at Week 52, Median (100 mg QD): −43.0
Change from Baseline in PSSD Symptom Score at Week 52, Median (100 mg QD): −28.0
Change from Baseline in PSSD Symptom Score at Week 52, LSMean (100 mg QD): −36.5
Subjects Achieving PSSD Sign Score 0 at Week 52 (100 mg QD): 6 (14.0%)
Change from Baseline in PSSD Sign Score at Week 52, Median [1]: −48.5
Change from Baseline in PSSD Symptom Score at Week 52, Median [1]: −30.0
Change from Baseline in PSSD Symptom Score at Week 52, LSMean [1]: −32.4
Subjects achieving PSSD Sign Score = 0 at Week 52 [1]: (22.9%)
Subjects achieving PSSD Symptom Score = 0 at Week 52 [1]: (34.3%)
Change from Baseline in PSSD Sign Score, Mean (Week 1, 25 mg BID): −11.3
Change from Baseline in PSSD Sign Score, Median (Week 1, 25 mg BID): −11.0
Change from Baseline in PSSD Symptom Score, Mean (Week 1, 25 mg BID): −7.6
Change from Baseline in PSSD Symptom Score, Median (Week 1, 25 mg BID): −8.0
Change from Baseline in PSSD Sign Score, LSMean (Week 1, 25 mg BID): −11.4
Change from Baseline in PSSD Symptom Score, LSMean (Week 1, 25 mg BID): −7.8
Change from Baseline in PSSD Sign Score, Mean (Week 1, 25 mg QD): −11.9
Change from Baseline in PSSD Sign Score, Median (Week 1, 25 mg QD): −10.5
Change from Baseline in PSSD Symptom Score, Mean (Week 1, 25 mg QD): −12.9
Change from Baseline in PSSD Symptom Score, Median (Week 1, 25 mg QD): −12.0
Change from Baseline in PSSD Sign Score, LSMean (Week 1, 25 mg QD): −10.9
Change from Baseline in PSSD Symptom Score, LSMean (Week 1, 25 mg QD): −11.1
Change from Baseline in PSSD Sign Score, Mean (Week 1, 50 mg QD): −13.3
Change from Baseline in PSSD Sign Score, Median (Week 1, 50 mg QD): −11.0
Change from Baseline in PSSD Symptom Score, Mean (Week 1, 50 mg QD): −9.6
Change from Baseline in PSSD Symptom Score, Median (Week 1, 50 mg QD): −12.0
Change from Baseline in PSSD Sign Score, LSMean (Week 1, 50 mg QD): −13.3
Change from Baseline in PSSD Symptom Score, LSMean (Week 1, 50 mg QD): −9.1
Change from Baseline in PSSD Sign Score, Mean (Week 1, 100 mg BID): −15.9
Change from Baseline in PSSD Sign Score, Median (Week 1, 100 mg BID): −16.0
Change from Baseline in PSSD Symptom Score, Mean (Week 1, 100 mg BID): −12.5
Change from Baseline in PSSD Symptom Score, Median (Week 1, 100 mg BID): −8.0
Subjects Achieving PSSD Symptom Score 0 (%) (Week 1, 100 mg BID, Baseline Symptom Score ≥1, N=42): (2.4%)
Change from Baseline in PSSD Sign Score, LSMean (Week 1, 100 mg BID): −15.6
Change from Baseline in PSSD Symptom Score, LSMean (Week 1, 100 mg BID): −11.5
Change from Baseline in PSSD Sign Score, Mean (Week 1, 100 mg QD): −12.0
Change from Baseline in PSSD Sign Score, Median (Week 1, 100 mg QD): −9.0
Change from Baseline in PSSD Symptom Score, Mean (Week 1, 100 mg QD): −6.2
Change from Baseline in PSSD Symptom Score, Median (Week 1, 100 mg QD): −7.0
Change from Baseline in PSSD Sign Score, LSMean (Week 1, 100 mg QD): −12.4
Change from Baseline in PSSD Symptom Score, LSMean (Week 1, 100 mg QD): −8.4
Change from Baseline in PSSD Sign Score, Mean (Week 2, 25 mg BID): −20.3
Change from Baseline in PSSD Sign Score, Median (Week 2, 25 mg BID): −15.0
Change from Baseline in PSSD Symptom Score, Mean (Week 2, 25 mg BID): −16.0
Change from Baseline in PSSD Symptom Score, Median (Week 2, 25 mg BID): −12.0
Change from Baseline in PSSD Sign Score, LSMean (Week 2, 25 mg BID): −20.7
Change from Baseline in PSSD Symptom Score, LSMean (Week 2, 25 mg BID): −16.2
Change from Baseline in PSSD Sign Score, Mean (Week 2, 25 mg QD): −17.6
Change from Baseline in PSSD Sign Score, Median (Week 2, 25 mg QD): −17.5
Change from Baseline in PSSD Symptom Score, Mean (Week 2, 25 mg QD): −18.1
Change from Baseline in PSSD Symptom Score, Median (Week 2, 25 mg QD): −17.0
Change from Baseline in PSSD Sign Score, LSMean (Week 2, 25 mg QD): −15.7
Change from Baseline in PSSD Symptom Score, LSMean (Week 2, 25 mg QD): −15.8
Change from Baseline in PSSD Sign Score, Mean (Week 2, 50 mg QD): −22.7
Change from Baseline in PSSD Sign Score, Median (Week 2, 50 mg QD): −22.0
Change from Baseline in PSSD Symptom Score, Mean (Week 2, 50 mg QD): −17.3
Change from Baseline in PSSD Symptom Score, Median (Week 2, 50 mg QD): −16.0
Subjects Achieving PSSD Symptom Score 0 (%) (Week 2, 50 mg QD, Baseline Symptom Score ≥1, N=42): (2.4%)
Change from Baseline in PSSD Sign Score, LSMean (Week 2, 50 mg QD): −23.1
Change from Baseline in PSSD Symptom Score, LSMean (Week 2, 50 mg QD): −17.2
Change from Baseline in PSSD Sign Score, Mean (Week 2, 100 mg BID): −24.7
Change from Baseline in PSSD Sign Score, Median (Week 2, 100 mg BID): −28.0
Change from Baseline in PSSD Symptom Score, Mean (Week 2, 100 mg BID): −18.4
Change from Baseline in PSSD Symptom Score, Median (Week 2, 100 mg BID): −14.0
Change from Baseline in PSSD Sign Score, LSMean (Week 2, 100 mg BID): −24.3
Change from Baseline in PSSD Symptom Score, LSMean (Week 2, 100 mg BID): −17.1
Change from Baseline in PSSD Sign Score, Mean (Week 2, 100 mg QD): −22.6
Change from Baseline in PSSD Sign Score, Median (Week 2, 100 mg QD): −20.0
Change from Baseline in PSSD Symptom Score, Mean (Week 2, 100 mg QD): −15.2
Change from Baseline in PSSD Symptom Score, Median (Week 2, 100 mg QD): −14.0
Change from Baseline in PSSD Sign Score, LSMean (Week 2, 100 mg QD): −24.3
Change from Baseline in PSSD Symptom Score, LSMean (Week 2, 100 mg QD): −18.4
Change from Baseline in PSSD Sign Score, Mean (Week 4, 25 mg BID): −26.9
Change from Baseline in PSSD Sign Score, Median (Week 4, 25 mg BID): −25.0
Change from Baseline in PSSD Symptom Score, Mean (Week 4, 25 mg BID): −22.8
Change from Baseline in PSSD Symptom Score, Median (Week 4, 25 mg BID): −20.0
Subjects Achieving PSSD Symptom Score 0 (%) (Week 4, 25 mg BID, Baseline Symptom Score ≥1, N=41): (4.9%)
Change from Baseline in PSSD Sign Score, LSMean (Week 4, 25 mg BID): −27.5
Change from Baseline in PSSD Symptom Score, LSMean (Week 4, 25 mg BID): −23.1
Change from Baseline in PSSD Sign Score, Mean (Week 4, 25 mg QD): −24.5
Change from Baseline in PSSD Sign Score, Median (Week 4, 25 mg QD): −29.5
Change from Baseline in PSSD Symptom Score, Mean (Week 4, 25 mg QD): −23.6
Change from Baseline in PSSD Symptom Score, Median (Week 4, 25 mg QD): −23.0
Subjects Achieving PSSD Symptom Score 0 (%) (Week 4, 25 mg QD, Baseline Symptom Score ≥1, N=43): (2.3%)
Change from Baseline in PSSD Sign Score, LSMean (Week 4, 25 mg QD): −21.7
Change from Baseline in PSSD Symptom Score, LSMean (Week 4, 25 mg QD): −19.9
Change from Baseline in PSSD Sign Score, Mean (Week 4, 50 mg QD): −27.4
Change from Baseline in PSSD Sign Score, Median (Week 4, 50 mg QD): −29.0
